In brackets after ≈: the same amount, converted by molar mass. Where two headings read alike, the source gives them in different places.
How the values were obtained:
Drechsiera siccans = test: 50% inhibition of mycelium growth (IC50), five isolates, DMI fungicides; assay type: cell-based
Description: In the 2003 wheat crop for the first time, there was complaint of leaf spot control failure after continuous use of fungicides DMI+QoI, for 20 years. Until that time there were few reports of the sensitivity of the fungus that is causal agent of yellow spot to fungicides (Stoke, 2006; Tonin, 2009; Beard et al, 2009; Patel et al, 2012). The reference concentrations of sensitivity of Dtr to fungicides found in the literature were 0.17 mg/L in average for the epoxiconazole, propiconazole and tebuconazole. […] Comparing these values with the sensitivity of isolates of Brazil proves the reduced sensitivity occurring here (see Table 3).
Average of two experiments.

soybean rust [1] = test: Cooperative tests of fungicides (Embrapa Soybean): soybean rust control over crops, FIGS. 1-6; assay type: in vivo, Phakopsora pachyrhizi; settings: from regression equation over crops; starting crop differs per fungicide
Excerpt: An example that reinforces the reported fact is the gradual reduction of tebuconazole control over the crops using it covering the period beginning in 2004/05 to 2013/14 (as FIG. 1).
The results of cooperative tests of fungicides, coordinated by Embrapa Soybean, Londrina, can bring the answer to these questions. The following graphs of FIGS. 2, 3, 4 and 5 show the reduction of rust control by fungicide mixtures traditionally used in soybeans over the past crops.
FIG. 1. Reduced soybean rust control by tebuconazole over […]. (Source: Cooperative tests of fungicides).
FIG. 2. Control Reduction of soybean rust by cyproconazole+azoxystrobin mixture over six crops. (Source: Cooperative tests of fungicides).
FIG. 3. Control Reduction of soybean rust by cyproconazole+picoxystrobin mixture over six crops. (Source: Cooperative tests of fungicides).
FIG. 4. Reduction control of soybean rust by epoxiconazole+pyraclostrobin mixture over six crops. (Source: Cooperative tests of fungicides).
FIG. 5. Average reduction of soybean rust control by mixtures of cyproconazole+azoxystrobin, cyproconazole+picoxystrobin and epoxiconazole+pyraclostrobin over six crops. (Source: Cooperative tests of fungicides).
FIG. 6. Control Reduction of soybean rust for azoxystrobin over six crops. (Source: Cooperative tests of fungicides).

[2] = system: Drechsiera tritici-repentis; test: 50% inhibition of spore germination (CI50), five isolates, strobilurin fungicides; assay type: cell-based
Description: However, the highest reduction of sensitivity of the Dtr to fungicides and what better explains the control failure claimed by producers is the CI50 obtained for QoIs fungicides (see Table 4).
Lowercase compare average in the column and capital letters in the line. Average of two experiments.
Taking as Cl50 standard of sensitivity, 0.75 mg/L (Table 4) obtained for pyraclostrobin, it is calculated the reduction factor of the sensitivity of the Dtr to QoIs fungicides (see Table 5).
Cl50 of sensitivity reference of 0.75 mg/L.
When the SRF is close to 1.0 there is no reduction of sensitivity. However, if >1 with different magnitude, it indicates reduced sensitivity of fungi to fungicides. In this case SRF ranged from 1.04 to >53 (see Table 5).

soybean rust [3] = settings: 2013/14 crop; cited from earlier work
soybean rust [4] = system: soybean rust; set-up: Control of soybean rust, crop 2005/06 / Control of soybean rust, crop 2012/13: concentration or dose not given beside the values; settings: cited from earlier work; for Reduction (%) of control: 2005/06 versus 2012/13 crop; for Control of soybean rust, crop 2005/06 / Control of soybean rust, crop 2012/13: applied preventively; for Control of soybean rust, crop 2005/06: 2005/06 crop; for Control of soybean rust, crop 2012/13: 2012/13 crop
soybean rust [5] = settings: crop 2010/11, cited from earlier work
[6] = system: Dtr (Drechsiera tritici-repentis); settings: literature value, cited from earlier work
[7] = average of five isolates, read-out: IC50 Average
[8] = isolate 01/F30, average of two experiments, read-out: IC50 isolate 01/F30
[9] = isolate 02/RZ, read-out: IC50 isolate 02/RZ
[10] = isolate 03/SF, read-out: IC50 isolate 03/SF
[11] = isolate 04/F52, read-out: IC50 isolate 04/F52
[12] = isolate 05/VQ, read-out: IC50 isolate 05/VQ

SMILES | IC50 (Drechsiera siccans; [7]) [µg/mL] | IC50 (Drechsiera siccans; [8]) [µg/mL] | IC50 (Drechsiera siccans; [9]) [µg/mL] | IC50 (Drechsiera siccans; [10]) [µg/mL] | IC50 (Drechsiera siccans; [11]) [µg/mL] | IC50 (Drechsiera siccans; [12]) [µg/mL] | Control efficiency reduced per year (soybean rust [1]) [% per year] | Reduction (%) of control (soybean rust [4]) [%] | Control of soybean rust, crop 2005/06 (soybean rust [4]) [%] | Control of soybean rust, crop 2012/13 (soybean rust [4]) [%] | IC50 (Beard et al) [6] [µg/mL] | IC50 (Hunger & Brown) [6] [µg/mL] | also measured
OC(Cc1ccccc1Cl)(Cn1nc[nH]c1=S)C1(Cl)CC1 (stereo not drawn) [Prothioconazole] | 0.21 (≈ 0.61 µM) | 0.22 (≈ 0.639 µM) | < 0.1 | 0.26 (≈ 0.755 µM) | 0.25 (≈ 0.726 µM) | 0.14 (≈ 0.407 µM) |  |  |  |  |  |  | 
CO/C=C(/C(=O)OC)c1ccccc1Oc1cc(Oc2ccccc2C#N)ncn1 [Azoxystrobin] |  |  |  |  |  |  | 13.8 |  |  |  |  |  | Reduction factor of the sensitivity, isolate 01/QTZ ([2]; CI50 of sensitivity reference 0.75 mg/L, isolate 01/QTZ): A > 53 a; Reduction factor of the sensitivity, Average ([2]; reference 0.75 mg/L, average of five isolates): >53 a; Reduction factor of the sensitivity, isolate 02/ONX ([2]; reference 0.75 mg/L, isolate 02/ONX): A > 53 a; Reduction factor of the sensitivity, isolate 03/HZT ([2]; reference 0.75 mg/L, isolate 03/HZT): A > 53 a; Reduction factor of the sensitivity, isolate 04/GUA ([2]; reference 0.75 mg/L, isolate 04/GUA): A > 53 a; Reduction factor of the sensitivity, isolate 05/CD ([2]; reference 0.75 mg/L, isolate 05/CD): A > 53 a; CI50 Average ([2]; spore germination, average of five isolates): A > 40 a ^ mg/L; CI50 isolate 01/QTZ ([2]; spore germination, isolate 01/QTZ, average of two experiments): A > 40 a mg/L; CI50 isolate 02/ONX ([2]; spore germination, isolate 02/ONX): A > 40 a mg/L; CI50 isolate 03/HZT ([2]; spore germination, isolate 03/HZT): A > 40 a mg/L; CI50 isolate 04/GUA ([2]; spore germination, isolate 04/GUA): A > 40 a mg/L; CI50 isolate 05/CD ([2]; spore germination, isolate 05/CD): A > 40 a mg/L; Control of soybean rust in the 2013/14 (last) crop (soybean rust [3]): 16%
CC(C)(C)C(O)(CCc1ccc(Cl)cc1)Cn1cncn1 (stereo not drawn) [Tebuconazole] | 0.57 (≈ 1.85 µM) | 0.66 (≈ 2.14 µM) | 0.49 (≈ 1.59 µM) | 0.65 (≈ 2.11 µM) | 0.61 (≈ 1.98 µM) | 0.44 (≈ 1.43 µM) | 7.2 | 32.8 | 95.0 | 64.0 | 0.25 (≈ 0.812 µM) | 0.19 (≈ 0.617 µM) | Control (%) (soybean rust [5]; evaluated by AUDPC): 42%; Severity (%) (soybean rust [5]; untreated control 74.0): 49.9%
CCCC1COC(Cn2cncn2)(c2ccc(Cl)cc2Cl)O1 (stereo not drawn) [Propiconazole] | 0.34 (≈ 0.993 µM) | 0.32 (≈ 0.935 µM) | 0.51 (≈ 1.49 µM) | 0.3 (≈ 0.877 µM) | 0.3 (≈ 0.877 µM) | 0.3 (≈ 0.877 µM) |  |  |  |  |  | 0.04 (≈ 0.117 µM) | 
Fc1ccc([C@]2(Cn3cncn3)O[C@H]2c2ccccc2Cl)cc1 (racemic) [Epoxiconazole] | 0.33 (≈ 1 µM) | 0.28 (≈ 0.849 µM) | 0.28 (≈ 0.849 µM) | 0.4 (≈ 1.21 µM) | 0.32 (≈ 0.97 µM) | 0.4 (≈ 1.21 µM) |  | 50.0 | 80.0 | 40.0 | 0.19 (≈ 0.576 µM) |  | 

— patent US11272706B2, “Anti-resistance method” (UPL LIMITED, priority 2017, dated 2022)
